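Protocol summary: plate cells (96-well), add compound at 5 concentrations, incubate 48 h, interpolate endpoints linearly. Here, GI50 denotes the concentration required for 50% inhibition of growth.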 Activity calls are given as the source filed them. Rule as the data show it: active = GI50 up to about 1.1 µM and inactive = higher.
How the values were obtained:
Assay in all cases: NCI tumour cell line growth inhibition, 48 h
DU-145 = tested on: DU-145
A549 = tested on: A549
NCI/ADR-RES = tested on: NCI/ADR-RES
K562 = tested on: K562
SR = tested on: SR
T47D = tested on: T47D
OVCAR-4 = tested on: OVCAR-4
OVCAR-3 = tested on: OVCAR-3
EKVX = tested on: EKVX
U-251 = tested on: U-251
RPMI-8226 = tested on: RPMI-8226
HL-60 = tested on: HL-60
SF-295 = tested on: SF-295
OVCAR-8 = tested on: OVCAR-8
MOLT-4 = tested on: MOLT-4
CCRF-CEM = tested on: CCRF-CEM
SN12C = tested on: SN12C
NCI-H226 = tested on: NCI-H226
SNB-78 = tested on: SNB-78
COLO 205 = tested on: COLO 205
MDA-MB-435 = tested on: MDA-MB-435
SF-539 = tested on: SF-539
RXF 393 = tested on: RXF 393
MDA-N = tested on: MDA-N
HCT-116 = tested on: HCT-116
A498 = tested on: A498
UACC-62 = tested on: UACC-62
HOP-18 = tested on: HOP-18
KM-20L2 = tested on: KM-20L2
XF498 = tested on: XF498
PC-3 = tested on: PC-3
OVCAR-5 = tested on: OVCAR-5
HOP-92 = tested on: HOP-92
UACC-257 = tested on: UACC-257
Malme-3M = tested on: Malme-3M
UO-31 = tested on: UO-31
SF-268 = tested on: SF-268
NCI-H460 = tested on: NCI-H460
HOP-62 = tested on: HOP-62
M14 = tested on: M14
NCI-H522 = tested on: NCI-H522
MDA-MB-231 = tested on: MDA-MB-231
MCF7 = tested on: MCF7
NCI-H23 = tested on: NCI-H23
SK-MEL-28 = tested on: SK-MEL-28
IGROV-1 = tested on: IGROV-1
786-0 = tested on: 786-0
SNB-19 = tested on: SNB-19
SK-MEL-5 = tested on: SK-MEL-5
SK-MEL-2 = tested on: SK-MEL-2
HCC 2998 = tested on: HCC 2998
LOX IMVI = tested on: LOX IMVI
HCT-15 = tested on: HCT-15
DMS-114 = tested on: DMS-114
LXFL 529 = tested on: LXFL 529
SW-620 = tested on: SW-620
TK-10 = tested on: TK-10
HT-29 = tested on: HT-29
SNB-75 = tested on: SNB-75
ACHN = tested on: ACHN
Hs-578T = tested on: Hs-578T
CAKI-1 = tested on: CAKI-1
DLD-1 = tested on: DLD-1
M19-MEL = tested on: M19-MEL
SK-OV-3 = tested on: SK-OV-3
DMS-273 = tested on: DMS-273
KM12 = tested on: KM12

Sc1ncnc2nc[nH]c12 [MERCAPTOPURINE ANHYDROUS]
GI50 (DU-145): 2.51 µM (inactive)
GI50 (A549): 30.1 µM (inactive)
GI50 (NCI/ADR-RES): 3.56 µM (inactive)
GI50 (K562): 0.351 µM (active)
GI50 (SR): 1.24 µM (inactive)
GI50 (T47D): 3.55 µM (inactive)
GI50 (OVCAR-4): 8.05 µM (inactive)
GI50 (OVCAR-3): 0.857 µM (active)
GI50 (EKVX): 263 µM (inactive)
GI50 (U-251): 13.7 µM (inactive)
GI50 (RPMI-8226): 1.76 µM (inactive)
GI50 (HL-60): 2.44 µM (inactive)
GI50 (SF-295): 5.81 µM (inactive)
GI50 (OVCAR-8): 2.54 µM (inactive)
GI50 (MOLT-4): 1.61 µM (inactive)
GI50 (CCRF-CEM): 1.26 µM (inactive)
GI50 (SN12C): 23.8 µM (inactive)
GI50 (NCI-H226): 58.5 µM (inactive)
GI50 (SNB-78): 90.4 µM (inactive)
GI50 (COLO 205): 4.94 µM (inactive)
GI50 (MDA-MB-435): 1.44 µM (inactive)
GI50 (SF-539): 2.49 µM (inactive)
GI50 (RXF 393): 29.5 µM (inactive)
GI50 (MDA-N): 1.78 µM (inactive)
GI50 (HCT-116): 2.37 µM (inactive)
GI50 (A498): 58.7 µM (inactive)
GI50 (UACC-62): 1.76 µM (inactive)
GI50 (HOP-18): 192 µM (inactive)
GI50 (KM-20L2): 1.92 µM (inactive)
GI50 (XF498): 5.04 µM (inactive)
GI50 (PC-3): 4.39 µM (inactive)
GI50 (OVCAR-5): 8.63 µM (inactive)
GI50 (HOP-92): 2.94 µM (inactive)
GI50 (UACC-257): 14.4 µM (inactive)
GI50 (Malme-3M): 3.66 µM (inactive)
GI50 (UO-31): 6.85 µM (inactive)
GI50 (SF-268): 4.11 µM (inactive)
GI50 (NCI-H460): 5.53 µM (inactive)
GI50 (HOP-62): 1.75 µM (inactive)
GI50 (M14): 0.675 µM (active)
GI50 (NCI-H522): 1.62 µM (inactive)
GI50 (MDA-MB-231): 24.4 µM (inactive)
GI50 (MCF7): 1.64 µM (inactive)
GI50 (NCI-H23): 3.89 µM (inactive)
GI50 (SK-MEL-28): 372 µM (inactive)
GI50 (IGROV-1): 9.48 µM (inactive)
GI50 (786-0): 2.03 µM (inactive)
GI50 (SNB-19): 128 µM (inactive)
GI50 (SK-MEL-5): 8.36 µM (inactive)
GI50 (SK-MEL-2): 5.97 µM (inactive)
GI50 (HCC 2998): 3.51 µM (inactive)
GI50 (LOX IMVI): 0.383 µM (active)
GI50 (HCT-15): 4.57 µM
GI50 (DMS-114): 1.67 µM (inactive)
GI50 (LXFL 529): 653 µM (inactive)
GI50 (SW-620): 6.38 µM (inactive)
GI50 (TK-10): 1.94 µM (inactive)
GI50 (HT-29): 4.02 µM (inactive)
GI50 (SNB-75): 8.75 µM (inactive)
GI50 (ACHN): 6.27 µM (inactive)
GI50 (Hs-578T): 14.2 µM (inactive)
GI50 (CAKI-1): 3.21 µM (inactive)
GI50 (DLD-1): 2.08 µM (inactive)
GI50 (M19-MEL): 69 µM (inactive)
GI50 (SK-OV-3): 1.03 µM (active)
GI50 (DMS-273): 0.426 µM (active)
GI50 (KM12): 7.57 µM (inactive)
